The subject of series [1] is RBL-2H3 cells. Kind of series: β-hexosaminidase release assay, calcium ionophore A23187 stimulation. The class given is cell-based. How it is done: (§1) The inhibitory activity of SRS143 and quercetin against the release of β-hexosaminidase from RBL-2H3 cells was evaluated according to the method reported previously (Lin et al. [2020]). Briefly, the cells were cultured in a 24-well cell culture plate (9 × 10^5/well, Becton–Dickinson Co., Franklin Lakes, NJ) with concentration ([…]) of mouse monoclonal anti-dinitrophenyl (DNP) IgE. After washing with PBS, SRS143 at various concentrations (0, 0.1, 1 and 10 μM)) or quercetin (30 μM) was added. After 60 min of incubation, DNP-labeled bovine serum albumin (DNP-labeled BSA, 50 ng/ml final concentration) was added, followed by 45 min of incubation. The supernatant (50 μl) was mixed with 100 μl of a 0.1 M citrate buffer (pH 4.5) containing 1 mM […] and the mixture was incubated in a 96-well plate at 37 °C for 60 min. For the calcium ionophore stimulation method, CaI A23187 was added at 5 µM to induce degranulation. Each well was replaced with 0.4 mL of MEM media and 100 µL of MTT solution to evaluate cell viability using MTT assay. Supernatants from CaI A23187-induced degranulated cells were collected, centrifuged, and reacted with PNAG in citrate buffer at 37℃ for 1 h. The reaction was stopped, and absorbance at 405 nm was measured using a microplate reader (Versamax).to assess beta-hexosaminidase activity, indicating enzyme subproduct levels. The results are expressed as percentage release of β-hexosaminidase activity amount by antigen (DNP-labeled BSA) alone.
(§2) Mast cell degranulation is the key process in allergic asthma. To induce mast cell degranulation process in RBL-2H3 cells, the cells were sensitized and challenged with DNP-labelled specific antigen IgE. Alternatively, the mast cells were induced with calcium ionophore A23187 to trigger direct degranulation independent of activation of IgE. The release was assessed with β-hexosaminidase assay whereby the amount β-hexosaminidase enzyme released correlates to histamine release by RBL-2H3 cells. In the preliminary screening, single low dose of 10 µM of AGP and its derivatives were applied to the calcium ionophore activated cells for a short duration of 1 h. Quercetin as positive control was also applied at a higher dose of 50 µM. For cell viability assay, the cells were washed and replenished with fresh medium supplemented with 15% FBS after 1 h of treatment. The cell viability was measured at 24 h. […] Given close to eightfold improved potency in inhibition of mast degranulation (Fig. 4A, B and C). We further measured the efficacy of SRS143 in a dose response study involving both efficacy and toxicity.

The nature of series [2]: Cell viability (MTT) assay. In kind it is cell-based. As to conditions: rat, RBL-2H3 cells, 1 h treatment, washed, viability measured at 24 h. How it is done: (§3) RBL-2H3 cells were maintained in Minimum Essential Media (MEM, ThermoFischer, Grand Island, NY), supplemented with 15% heat-inactivated FBS, 100 U/mL of penicillin and 100 µg/mL of streptomycin. The cytotoxicity effect of the SRS143 was carried out using the rapid colorimetric assay that measures the activity of mitochondrial dehydrogenase in living cells, which convert the pale yellow soluble tetrazolium salt MTT into a insoluble purple end product formazan.
as §1, §2

In series [3] the test system is RBL-2H3 cells. Kind of series: Cell viability (MTT) assay. In kind it is cell-based. How it is done: as §3, §1, §2
Series [4] relates to HDM-induced asthmatic BALB/c mice. Kind of series: House dust mite allergic asthma mouse model, BAL fluid total and differential cell counts. In kind it is in vivo. As to conditions: day 7-11, n = 6; for BAL fluid airway infiltration of all inflammatory leukocytes: 1 mg/kg i.p., positive control. How it is done:
(§4) BALB/c mice of 6–8 weeks of age were housed in the animal experimentation unit, Faculty of Medicine and Health Sciences, Universiti Putra Malaysia (UPM). Mice were kept in individually vented cages (1820 cm^3, not more than 6 mice per cage) with a bed of poplar shaving and free access to clean water and food. Mice were grouped into 8 groups of 6 mice per group – Group 1: Normal control, Group 2: HDM, Group 3: Vehicle (6% DMSO), Group 4: SRS143 (0.3 mg/kg), Group 5: SRS143 (1 mg/kg), Group 6: SRS143 (3 mg/kg), Group 7: dexamethasone (1 mg/kg), Group 8: andrographolide (1 mg/kg). Throughout the study, both experimental and control mice were kept under appropriate conditions (22 ± 2 °C temperature, and 55 ± 10% relative humidity). The mice were maintained under a 12-h light-darkness cycle.
Allergic asthma was induced using house dust mite (Dermatophagoides pteronyssinus, Lot Number: 253983, Greer Laboratories, Lenoir, USA). The HDM was dissolved and prepared to a concentration of 5000 µg/mL in PBS, and then it was aliquoted and frozen (−20 °C) for further use. A 14-day HDM model was used to induce asthma in Balb/c mice (Lim et al. [2016]). The animals were sub-anesthetized using a cocktail of ketamine (50 mg/kg) and xylazine (3.3 mg/kg) for the intranasal HDM sensitization and challenged protocol. Briefly, the induction involved initial intranasal administration of 100 μg HDM extract (10 μL per nostril) on day 0, and subsequent administration of 10 μg of HDM (10 μL per nostril) on day 7—11. Mice were treated with SRS143 at doses of 0.3, 1, or 3 mg/kg, or with dexamethasone (1 mg/kg) or andrographolide (1 mg/kg). All treatments were administered at a constant volume of 10 mL/kg. Bronchoalveolar lavage (BAL) fluid collection was conducted on day 14.
Fig. 3 HDM-asthma induction protocol. Animals were intranasally (i.n.) sensitized using 100 μg of house dust mite (HDM) on day 0, this was followed by daily HDM intranasal challenge (10 μg) on day 7 −11. […]
BAL fluid total and differential cell counts were determined as described (Matsuda et al. [1994]).

Series [5] has as its system RBL-2H3 cells. Kind of series: β-hexosaminidase release assay, IgE-FcεRI (DNP-IgE/DNP-BSA) stimulation. The class given is cell-based. How it is done: The inhibitory activity of SRS143 and quercetin against the release of β-hexosaminidase from RBL-2H3 cells was evaluated according to the method reported previously (Lin et al. [2020]). Briefly, the cells were cultured in a 24-well cell culture plate (9 × 10^5/well, Becton–Dickinson Co., Franklin Lakes, NJ) with concentration ([…]) of mouse monoclonal anti-dinitrophenyl (DNP) IgE. After washing with PBS, SRS143 at various concentrations (0, 0.1, 1 and 10 μM)) or quercetin (30 μM) was added. After 60 min of incubation, DNP-labeled bovine serum albumin (DNP-labeled BSA, 50 ng/ml final concentration) was added, followed by 45 min of incubation. […] The reaction was stopped, and absorbance at 405 nm was measured using a microplate reader (Versamax).to assess beta-hexosaminidase activity, indicating enzyme subproduct levels. The results are expressed as percentage release of β-hexosaminidase activity amount by antigen (DNP-labeled BSA) alone.
Mast cell degranulation is the key process in allergic asthma. […] The release was assessed with β-hexosaminidase assay whereby the amount β-hexosaminidase enzyme released correlates to histamine release by RBL-2H3 cells. […] The cell viability was measured at 24 h. […] We further measured the efficacy of SRS143 in a dose response study involving both efficacy and toxicity.

In a further series the test system is Akt phosphorylation. Kind of series: Immunoblotting of Akt phosphorylation in IgE-FcεRI activated mast cells. The class given is cell-based. As to conditions: IgE-FcεRI activated RBL-2H3 cells, 0.1, 1 and 10 µM, n = 3. How it is done:
Nuclear proteins of RBL-2H3 cells (10 µg per lane) were separated by 10% SDS-PAGE and immunoblots were developed as described (Matsuda et al. [1994]). Immunoblots were probed with anti-AKT and anti-β-actin antibodies (all from Cell Signalling Technology, Beverly, MA).

Series [6] has as its system HDM-induced asthmatic BALB/c mice. The series is described as follows: House dust mite allergic asthma mouse model, airway hyperresponsiveness to methacholine. In kind it is in vivo. Conditions: methacholine 2-32 mg/ml, n = 6. How it is done:
as §4
Allergic asthma was induced using house dust mite (Dermatophagoides pteronyssinus, Lot Number: 253983, Greer Laboratories, Lenoir, USA). The HDM was dissolved and prepared to a concentration of 5000 µg/mL in PBS, and then it was aliquoted and frozen (−20 °C) for further use. A 14-day HDM model was used to induce asthma in Balb/c mice (Lim et al. [2016]). The animals were sub-anesthetized using a cocktail of ketamine (50 mg/kg) and xylazine (3.3 mg/kg) for the intranasal HDM sensitization and challenged protocol. […]

For series [7] the test system is unchanged. The series is described as follows: House dust mite allergic asthma mouse model, lung histology (H&E, PAS). The class given is in vivo. How it is done: as §4
Allergic asthma was induced using house dust mite (Dermatophagoides pteronyssinus, Lot Number: 253983, Greer Laboratories, Lenoir, USA). The HDM was dissolved and prepared to a concentration of 5000 µg/mL in PBS, and then it was aliquoted and frozen (−20 °C) for further use. […]
Isolated lungs were fixed in 10% neutral formalin and processed. […] (5 µm) were stained with H&E for inflammatory cell infiltration and Periodic Acid Schiff […] stain (PAS) for mucus production. Quantitative analysis under a light microscope was then performed. […]

Where [8] appears, read: Rattus norvegicus, 10 µM, 1 h, calcium ionophore A23187 activated RBL-2H3 cells, read-out: Inhibition of β-Hexosaminidase Enzyme Release (%).

“Also recorded” adds a separate entry of the source.

As for `O=c1c(O)c(-c2ccc(O)c(O)c2)oc2cc(O)cc(O)c12` [Quercetin, quercetin, reference compound], in the series on RBL-2H3 cells [1] (Rattus norvegicus, 50 µM, 1 h, calcium ionophore A23187 activated RBL-2H3 cells, read-out: Inhibition of β-Hexosaminidase Enzyme Release (%)), the inhibition at 50 µM came to 78.8 ± 8.5%. Also, the viability at 1 h, 50 µM in series [2] (50 µM) is 106%.
On to `C=C1CCC2C(C)(CO)C(O)CCC2(C)C1C=CC1=CCOC1=O` (centres unmarked) [DDAG, 14-deoxy-11,12-didehydroandrographolide], for which, in the series on RBL-2H3 cells [3] (10 µM, 1 h treatment, washed, viability measured at 24 h), the “Viability of RBL-2H3 Cells (%)” value is listed as 99.6%.
As to `C[C@@H]1C[C@H]2[C@@H]3CCC4=CC(=O)C=C[C@]4(C)[C@@]3(F)[C@@H](O)C[C@]2(C)[C@@]1(O)C(=O)CO` [Dexamethasone, dexamethasone, reference compound], in series [4], the “BAL fluid airway infiltration of all inflammatory leukocytes” value is on record as “showed inhibition”.
As for `C=C1CC[C@@H]2[C@](C)(CO)[C@H](O)CC[C@@]2(C)[C@@H]1C/C=C1/C(=O)OC[C@H]1O` [AGP, andrographolide], the “Inhibition of β-Hexosaminidase Enzyme Release (%)” value in the series on RBL-2H3 cells [1] (10 µM, 1 h, calcium ionophore A23187 activated RBL-2H3 cells) is “low percentage inhibition level”. Further, the inhibition at 10 µM in the series with RBL-2H3 cells [1] (setting [8]) amounted to 11.1 ± 5.7%. The “In vitro antihistamine activity” value in the series on RBL-2H3 cells [1] (calcium ionophore activated RBL-2h3 cells) and with RBL-2H3 cells [5] (DNP-IgE activated RBL-2h3 cells) was “did not show any in vitro antihistamine activity” throughout. Moreover, in series [2], the viability at 1 h, 10 µM amounted to 81.3%. For the same compound, in series [4], the “BAL fluid airway infiltration of all inflammatory leukocytes” value is listed as “showed inhibition”.
Regarding `C=C1CCC2C3(C)COC(c4ccccc4)OC3CCC2(C)C1C/C=C1/C(=O)OCC1OC(C)=O` (centres unmarked) [SRS143, 3,19-Benzylidene-14-acetylandrographolide], in the series with RBL-2H3 cells [1] (10 µM screening, the comparator is not given, presumably AGP), the “Improved potency in inhibition of mast degranulation” value is recorded as “eightfold”. Moreover, in the series on RBL-2H3 cells [1] (Rattus norvegicus, RBL-2H3, 30 µM, 1 h, dose-response study (Fig. 4B), read-out: Inhibition of enzyme release), the inhibition at 30 µM was approximately 97%. Also, the IC50 in the series on RBL-2H3 cells [1] (Rattus norvegicus, RBL-2H3, calcium ionophore A23187 stimulation, 1 h (Fig. 4B), read-out: IC50, inhibition of β-hexosaminidase release) is 6.5 µM; with RBL-2H3 cells [5] (Rattus norvegicus, RBL-2H3, IgE-FceRI stimulation, 1 h (Fig. 4C), 50% mark on concentration axis, read-out: IC50, inhibition of β-hexosaminidase release) it was 6.5 µM. Besides, the inhibition at 10 µM with RBL-2H3 cells [1] (setting [8]) came to 85.2 ± 3.1%. Besides, the “Levels of phosphorylated-Akt” value in the series with Akt phosphorylation is reported as “decrease significantly at the highest dose of 10 μM”. Further, the “Airway resistance (RI) in response to methacholine” value in series [6] (1 and 3 mg/kg i.p.) is on record as “remarkable decrease”. The “Dynamic compliance (Cdyn) in response to methacholine” value in series [6] (SRS143 i.p.) is “no significant changes”. The “Peribronchial and perivascular inflammatory cellular infiltration in lung sections (H&E)” value in series [7] (0.3, 1, 3 mg/kg i.p., day 7-11) is on record as “dose-dependently decreased”. Further, the “PAS-positive cells score (mucus, goblet metaplasia)” value in series [7] (SRS143 i.p., HDM sensitized and challenged mice) was “between mild to no observable goblet metaplasia”. For the same compound, the “Cytotoxicity on RBL-2H3 cells” value with RBL-2H3 cells [3] (1 h, 24 h, and 24 h after washing at 1 h) is “only toxic if applied at the highest concentration of 100 µM”. The viability at 1 h, 10 µM in series [2] was 107%. In addition, the “BAL fluid total cells, macrophage, neutrophil, eosinophil and lymphocyte infiltration” value in series [4] (0.3, 1, 3 mg/kg i.p. 2 h before HDM challenge, vs HDM group) is listed as “significant reduction; also recorded: dose-dependently reduced”.

Source of the values: PMC13046583, “SRS143 a semi-synthetic analogue of andrographolide against house dust mite induced allergic asthma” (Naunyn-Schmiedeberg's Archives of Pharmacology, 2025).
